Laboratory results: US7528175B2, “Method of treating airway diseases with beta-adrenergic inverse agonists” (Inverseon, Inc., priority 2005, dated 2009)
“And” between values parts separate entries of the source, which are not always exact repeats. Equal values may be shown once. “Also recorded” adds a separate entry of the source. Read-outs that look alike come from different tables or passages of the source.

Assays:
β2-adrenergic receptor [1] = format: binding, mice; conditions: 2 days of administration
Method: (§1) β2-adrenergic receptor numbers were measured in asthmatic mice as follows. […] Mice were sacrificed and lung membranes were isolated as follows. Frozen lung tissue was homogenized in an ice-cold buffer containing 0.32 M sucrose and 25 mM Tris (pH 7.4) using a polytron (Pro 200, Pro Scientific, Inc.). The homogenate was centrifuged at 1000×g for 10 min at 4° C. The resulting supernatant was centrifuged at 40,000×g for 20 min at 4° C. The pellet was suspended in an ice-cold 25 mM Tris-HCl buffer (pH 7.4) and centrifuged at 40,000×g for 20 min at 4° C. The final pellet was suspended in 200 μL of 25 mM Tris-HCl (pH 7.4); membrane protein concentration was determined by BCA protein assay kit. […] The incubation was done at 37° C. for 2 h and terminated by rapid vacuum filtration through glass fiber filters. The filters were washed three times with 250 μL of cold wash buffer (25 mM Tris-HCl, pH 7.4) and the radioactivity determined in a counter. […] Receptor densities are expressed as femtomoles of sites per milligram of protein. Bmax is determined by nonlinear regression of the saturation binding curves.

β2-adrenergic receptor [2] = target: β2-adrenergic receptor (Mus musculus, UniProt P18762); format: binding, mice
Method: as §1

adults with mild asthma = experiment: Phase IIa clinical trial of chronic oral nadolol, tolerability and cardiovascular function; conditions: for Heart rate at 4 hrs after administration of dose: subject 003, 80 mg
Description: Study Design: The study is an open-label Phase IIa, proof of principle, 11-week, dose escalation study in mild asthma. Up to twelve subjects with mild asthma, not taking inhaled corticosteroids or other controller medications are to be recruited from a single clinical research center. […] Combivent rescue medication was provided to subjects during the run-in period to replace their own rescue medication which typically is Albuterol (salbutamol a beta 2 partial agonist).
The subjects are maintained at their maximum tolerated dose for a minimum of 4 weeks.
All the following criteria had to be met for dose escalation otherwise the dose was kept at maintenance level (same dose), reduced to previous lower tolerated dose or the subject was terminated from the study.
Data collected at baseline and during study visits include lung function (spirometry—FEV1 and daily peak flow rates —PEFR), asthma symptoms via dairy cards), heart rate and blood pressure. In addition, airway hyper-responsiveness (methacholine challenge test—PC20) and Asthma Control Questionaire (Juniper ACQ) will be performed. Blood is collected to monitor beta adrenergic receptor levels in lymphocytes and baseline laboratory evaluation.

interleukin 10 (IL-10) = experiment: IL-10 levels in BALF; format: in vivo, mice
Method: Bronchial alveolar lavage fluid was collected from treated animals and total immune cell number was determined and the total number of eosinophils was also determined. Additionally, the interleukin 10 (IL-10) levels were determined in the mice.

β2-adrenergic receptor (Mus musculus, UniProt P18762), sequence (P18762 whole entry): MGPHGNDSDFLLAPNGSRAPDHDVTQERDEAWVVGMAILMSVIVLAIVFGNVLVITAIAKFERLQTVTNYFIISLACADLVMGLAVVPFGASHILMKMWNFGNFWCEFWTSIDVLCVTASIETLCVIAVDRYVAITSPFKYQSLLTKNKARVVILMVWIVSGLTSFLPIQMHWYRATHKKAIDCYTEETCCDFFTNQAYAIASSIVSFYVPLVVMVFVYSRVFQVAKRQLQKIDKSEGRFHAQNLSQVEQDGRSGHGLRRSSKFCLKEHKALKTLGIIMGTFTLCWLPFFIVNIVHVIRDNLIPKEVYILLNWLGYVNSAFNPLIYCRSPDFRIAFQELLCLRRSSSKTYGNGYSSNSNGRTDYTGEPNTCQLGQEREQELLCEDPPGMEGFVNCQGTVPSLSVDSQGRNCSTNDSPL

CC(C)(C)NCC(O)COc1cccc2c1CC(O)C(O)C2 (centres unmarked) [nadolol]
Increased β2AR density (β2-adrenergic receptor [1]): showed an increase in receptor density at both 2 days and 28 days | Increased β2AR density (β2-adrenergic receptor [1]; listed as Nadolol): yes | Bmax (β2-adrenergic receptor [2]; 15 Minutes drug treatment, lung membranes of asthmatic mice, mean±SEM): 181.9 ± 48.28 femtomoles of sites per milligram of protein | βmax (β2-adrenergic receptor [2]; 28 Days drug treatment, lung membranes of asthmatic mice, mean±SEM): 785.5 ± 154.8 femtomoles of sites per milligram of protein | Increased β2AR density (β2-adrenergic receptor [2]; 15 minutes of administration): no | Increased β2AR density (β2-adrenergic receptor [2]; 28 days of administration): showed an increase in receptor density at both 2 days and 28 days | Increased β2AR density (β2-adrenergic receptor [2]; 28 days of administration, listed as Nadolol): yes | level of the β2-adrenergic receptor (β2-adrenergic receptor [2]; chronic treatment, asthmatic mice): nearly eightfold increase | Reason for Maximum Tolerated Dose: Blood Pressure (adults with mild asthma; per subject): 110/68 mm Hg and 91/63 mm Hg | Reason for Maximum Tolerated Dose: FEV1 (adults with mild asthma; per subject): FEV1 78% predicted; also recorded: FEV1 at 68% predicted | Reason for Maximum Tolerated Dose: Heart Rate (adults with mild asthma; per subject): Heart Rate 48 bpm | Nadolol Max Tolerated Dose (adults with mild asthma; per subject (001-005), once daily oral): 40 mg (2×) and 20 mg (2×) and 10 mg | Heart Rate Visit 9 (adults with mild asthma; per subject, on maximum tolerated dose): 71 bpm and 70 bpm (2×) and 72 bpm and 53 bpm | Heart rate at 4 hrs after administration of dose (adults with mild asthma; visit 5): 42 bpm | Heart rate at 4 hrs after administration of dose (adults with mild asthma; visit 6): 48 bpm | IL-10 levels in BALF (interleukin 10 (IL-10); acute treatment, P<0.01 vs S/C): a reduction was observed | IL-10 levels in BALF (interleukin 10 (IL-10); chronic treatment, P<0.05 vs NS/NC, P<0.001 vs S/C): statistically significant increases
